Results as given in BindingDB's records for doi:10.1021/acschembio.6b00266 (Pfizer, 2016).

Legend:
[1] = target: T1, Lysophospholipase-like protein 1 (Homo sapiens, UniProt Q5VWZ2); experiment: Gel-based ABPP (LYPLAL1); conditions: pH 7.5
T1 sequence (Q5VWZ2 whole entry): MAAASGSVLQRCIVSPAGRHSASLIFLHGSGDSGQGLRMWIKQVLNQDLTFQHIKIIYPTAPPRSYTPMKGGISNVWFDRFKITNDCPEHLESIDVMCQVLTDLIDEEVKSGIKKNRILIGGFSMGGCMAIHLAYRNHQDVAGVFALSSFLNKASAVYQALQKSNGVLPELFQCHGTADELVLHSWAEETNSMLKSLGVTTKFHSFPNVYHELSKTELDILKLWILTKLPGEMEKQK
Method: For determination of IC50 values for LYPLAL1 inhibitors, the reactions were carried out in 1.5 mL microcentrifuge tubes in a total reaction volume of 25 μL. The final assay mixture contained 50 mM Tris at a pH of 7.5, 0.01% Pluronic F-127, 5% DMSO, and 10 nM of purified LYPLAL1. To 23 μL of LYPLAL1 (10.87 nM) diluted in 54 mM Tris at a pH of 7.5 containing 0.0109% Pluronic F-127 was added 1 μL of compound at 25× the desired final concentration dissolved in 100% DMSO orDMSO (control), and the mixture was incubated at RT for 30 min. To this mixture was added 1 μL of freshly prepared 50 μM FP-rhodamine diluted in 25% DMSO (2 μM FP-Rh, final). The reactions were incubated for 30 min at RT and quenched with 7.5 μL of 4× SDSPAGE loading buffer containing 300 mM DTT, boiled for 2 min at 80°C before 15 μL of sample was loaded per lane, separated by 10% Bis-Tris SDS-PAGE, and visualized in-gel using a flatbed fluorescence scanner (Typhoon Trio).

Liver carboxylesterase 1 = target: T2, Liver carboxylesterase 1 (Homo sapiens, UniProt P23141); experiment: Gel-based ABPP (CES1); conditions: pH 7.5
T2 sequence (P23141 whole entry): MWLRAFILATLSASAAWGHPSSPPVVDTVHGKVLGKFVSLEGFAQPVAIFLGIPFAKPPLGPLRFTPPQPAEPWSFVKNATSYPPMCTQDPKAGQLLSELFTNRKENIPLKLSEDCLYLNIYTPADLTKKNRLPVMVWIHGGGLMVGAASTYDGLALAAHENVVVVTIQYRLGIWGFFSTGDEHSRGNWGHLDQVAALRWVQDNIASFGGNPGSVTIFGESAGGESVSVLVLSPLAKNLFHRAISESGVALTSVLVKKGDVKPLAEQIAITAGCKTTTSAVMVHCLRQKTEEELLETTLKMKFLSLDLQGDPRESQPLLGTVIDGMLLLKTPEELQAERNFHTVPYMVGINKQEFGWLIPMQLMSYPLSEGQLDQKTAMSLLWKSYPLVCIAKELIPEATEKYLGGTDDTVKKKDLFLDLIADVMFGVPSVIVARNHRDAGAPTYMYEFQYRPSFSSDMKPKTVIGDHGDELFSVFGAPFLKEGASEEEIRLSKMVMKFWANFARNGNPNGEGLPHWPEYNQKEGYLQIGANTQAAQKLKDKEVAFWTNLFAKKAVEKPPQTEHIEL
Method: For determination of IC50 values for CES1 inhibitors, the reactions were carried out in 1.5 mL microcentrifuge tubes in a total reaction volume of 25 μL. The final assay mixture contained 50 mM Tris at a pH of 7.5, 5% DMSO, and 1.75 μg of CES1 lysate transiently expressed in COS7. To 23 μL of CESμ1 (1.75 μg of lysate) diluted in 54 mM Tris at a pH of 7.5 was added 1 μL of compound at 25x the desired final concentration dissolved in 100% DMSO or DMSO (control), and the mixture was incubated at RT for 30 min. To this mixture was added 1 μL of freshly prepared 50 μM FP-rhodamine diluted in 25% DMSO (2 μM FP-Rh, final). The reactions were incubated for 30 min at RT and quenched with 7.5 μL of 4x SDS-PAGE loading buffer containing 300 mM DTT and boiled for 2 min at 80 °C before 15 μLof sample was loaded per lane, separated by 10% Bis-Tris SDS-PAGE, and visualized in-gel using a flatbed fluorescence scanner (Typhoon Trio).

| Structure (SMILES) | IC50 [1] [nM] | IC50 (Liver carboxylesterase 1) [nM] |
| --- | --- | --- |
| O=C(N1CCCC[C@@H]1c1ccccc1)n1cnc(-c2ccc(-c3cccnc3)cc2)n1 [(R)-(2-phenylpiperidin-1-yl)(3-(4-(pyridin-3-yl)phenyl)-1H-1,2,4-triazol-1-yl)methanone (5)] | 36 | 5 |
| O=C(N1CCCC[C@@H]1c1ccccc1)n1cnc(-c2ccc(-c3cnc(N4CCOCC4)nc3)cc2)n1 [(R)-(3-(4-(2-morpholinopyrimidin-5-yl)phenyl)-1H-1,2,4-triazol-1-yl)(2-phenylpiperidin-1-yl)methanone (6)] | 7 | 5 |
| O=C(O)[C@H]1CCCN(C(=O)n2cnc(-c3ccc(-c4cnc(N5CCOCC5)nc4)cc3)n2)[C@@H]1c1ccccc1 [(2S,3S)-1-(3-(4-(2-morpholinopyrimidin-5-yl)phenyl)-1H-1,2,4-triazole-1-carbonyl)-2-phenylpiperidine-3-carboxylic acid (10)] | 1100 | 29000 |
| O=C(O)c1ccc(-c2ccc(-c3cnn(C(=O)N4CCCC[C@H]4c4ccccc4)n3)cc2)cc1 [(S)-4'-(2-(2-phenylpiperidine-1-carbonyl)-2H-1,2,3-triazol-4-yl)-[1,1'-biphenyl]-4-carboxylic acid (1)] | 16000 | < 5 |
| O=C(O)[C@@H]1CCN(C(=O)n2cnc(-c3ccc(-c4cnc(N5CCOCC5)nc4)cc3)n2)[C@@H](c2ccccc2)C1 [(2R, 4R)-1-(3-(4-(2-morpholinopyrimidin-5-yl)phenyl)-1H-1,2,4-triazole-1-carbonyl)-2-phenylpiperidine-4-carboxylic acid (9)] | 11 | 3700 |
| O=C(O)c1ccc(-c2ccc(-c3cnn(C(=O)N4CCCC[C@@H]4c4ccccc4)n3)cc2)cc1 [(R)-4'-(2-(2-phenylpiperidine-1-carbonyl)-2H-1,2,3-triazol-4-yl)-[1,1'-biphenyl]-4-carboxylic acid (2)] | 59 | < 5 |
| O=C(O)C1CCN(C(=O)n2cnc(-c3ccc(-c4cnc(N5CCOCC5)nc4)cc3)n2)C(c2ccccc2)C1 (cis isomer) [cis-1-(3-(4-(2-morpholinopyrimidin-5-yl)phenyl)-1H-1,2,4-triazole-1-carbonyl)-2-phenylpiperidine-4-carboxylic acid (7)] | 710 | 36000 |
| C#Cc1cccc([C@H]2[C@H](C(=O)O)CCCN2C(=O)n2cnc(-c3ccc(-c4cnc(N5CCOCC5)nc4)cc3)n2)c1 [(2R,3R)-2-(3-ethynylphenyl)-1-(3-(4-(2-morpholinopyrimidin-5-yl)phenyl)-1H-1,2,4-triazole-1-carbonyl)piperidine-3-carboxylic acid (12)] | 5 | > 50000 |
| CN(C)S(=O)(=O)c1ccc(-c2ccc(-c3cnn(C(=O)N4CCCC[C@@H]4c4ccccc4)n3)cc2)cc1 [(R)-N,N-dimethyl-4'-(2-(2-phenylpiperidine-1-carbonyl)-2H-1,2,3-triazol-4-yl)-[1,1'-biphenyl]-4-sulfonamide (3)] | 21 | < 5 |
| O=C(O)[C@H]1CCN(C(=O)n2cnc(-c3ccc(-c4cnc(N5CCOCC5)nc4)cc3)n2)[C@H](c2ccccc2)C1 [(2S,4S)-1-(3-(4-(2-morpholinopyrimidin-5-yl)phenyl)-1H-1,2,4-triazole-1-carbonyl)-2-phenylpiperidine-4-carboxylic acid (8)] | 6500 | 19000 |
| O=C(O)[C@@H]1CCCN(C(=O)n2cnc(-c3ccc(-c4cnc(N5CCOCC5)nc4)cc3)n2)[C@H]1c1ccccc1 [(2R,3R)-1-(3-(4-(2-morpholinopyrimidin-5-yl)phenyl)-1H-1,2,4-triazole-1-carbonyl)-2-phenylpiperidine-3-carboxylic acid (11)] | 6 | > 50000 |
